Laboratory results as given in patent publication US20180162862A1 (President and Fellows of Harvard College, priority 2015, published 2018).
pIC50: −log10 of the molar value. Converted amounts (≈) assume the structure as drawn. Where two headings read alike, the source gives them in different places.

What was measured:
[1] = biological target: T1, S. aureus SgtB (SgtB ΔTM) (Staphylococcus aureus, UniProt Q99T05); test: Dose-dependent displacement of probe CMG121 from S. aureus SgtB by fluorescence polarization; assay type: binding; conditions: 75 nM CMG121, 1.0-1.5 μM SgtB, pH 8.0, 30 min at 4° C., read-out: SgtB (FP, probe CMG121 displacement) IC50
T1 construct: SgtB ΔTM of S. aureus; made in house
Description: FIGS. 10A to 10E show dose-dependent displacement of probe CMG121 from S. aureus SgtB with exemplified compounds determined by fluorescence polarization.
All of the references are incorporated by reference herein. • SgtB ΔTM of S. aureus (referred to as “SgtB”), • PBP2a (A68-N728) of E. faecalis (referred to as “PBP2a”)
Probe compound CMG121 was prepared as previously described (Gampe et al., J. Am. Chem. Soc. 2013, 135 (10), 3776-3779; U.S. Provisional Patent Application Nos. 61/621,229 filed on Apr. 6, 2012).
(§1) I. Dose-Dependent Displacement of CMG121 from S. aureus SgtB by Fluorescence Polarization
(§2) A black 384 well plate (Corning NBS Low Volume No. 3820) was filled (10 μL per well) with an equilibrated solution containing 10 mM TRIS (pH=8.0), 100 mM NaCl, 75 nM CMG121, and 1.0-1.5 μM S. aureus SgtB (depending on protein batch). Due to presence of 8 mM CHAPS detergent in the buffer of the S. aureus SgtB stock, the final assay solution contains 100-160 μM CHAPS. Using an HP D300 Digital Dispenser, for each compound a 1/1 dilution series (12 wells) of the primary hit compound in DMSO (normalized to 1 μL with DMSO) was prepared and added to the aforementioned assay solution. The plate was incubated at 4° C. for 30 min and read with a Perkin Elmer EnVision microplate reader (FP-read out, excitation: 480 nm; emission: 535 nm).
(§3) FIGS. 10A-E show values of reduction of fluorescence polarization for exemplified compounds. […] In the primary assay, FP was read after 30 min at 4° C., compound concentration was ca. 100 μM, and 90% reduction in FP was threshold for scoring hits (Gampe et al., J. Am. Chem. Soc. 2013, 135 (10), 3776-3779; U.S. Provisional Patent Application, U.S. Ser. No. 61/621,229, filed on Apr. 6, 2012; International Application No. PCT/US2013/030800 filed on Mar. 13, 2013).
(§4) The values were determined in two independent experiments. IC50=10 μM; Hill slope: −0.92.

H. influenzae ATCC 49247 = test: MIC test according to CLSI M7-A9, H. influenzae ATCC 49247; assay type: cell-based; conditions: Haemophilus influenzae, ATCC49247; CLSI M7-A9, Haemophilus Test Medium, 24 h
Description: MIC Test (H. influenzae ATCC 49247)
Susceptibility testing of H. influenzae ATCC 49247 was performed according to Clinical Laboratory Standard Institute (CLSI) guidelines M7-A9. Test articles were stored at room temperature prior to use, then dissolved in filtered sterile DMSO. Stock DMSO solutions were diluted further in Haemophilus Test Medium (HTM) to provide appropriate test concentrations. Cultures of H. influenzae ATCC 49247 were added in accordance with CLSI guidelines and plates incubated at 37° C. in air for 24 h. Endpoints were determined visually (and by spectrophotometer at 600 nm) and the minimum inhibitory concentration (MIC) defined as the lowest concentration of test articles resulting in complete inhibition of visible bacterial growth.

S. aureus ATCC 29213 = test: MIC test according to CLSI M7-A9, S. aureus ATCC 29213; assay type: cell-based; conditions: Staphylococcus aureus, ATCC29213, CLSI M7-A9, CAMHB
How it was run: (§5)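 Per CLSI M7-A9, DMSO stocks diluted in cation-adjusted Mueller Hinton broth, plates incubated 24 h at 37 °C in air. MIC is the lowest concentration giving complete inhibition of visible growth, read visually and at 600 nm.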

S. aureus ATCC 43300 = test: MIC test according to CLSI M7-A9, S. aureus ATCC 43300; assay type: cell-based; conditions: Staphylococcus aureus, ATCC43300, CLSI M7-A9, CAMHB
How it was run: as §5

S. aureus Newman = test: MIC test according to CLSI M7-A9, S. aureus Newman; assay type: cell-based; conditions: Staphylococcus aureus, CLSI M7-A9, CAMHB, 24 h (Table 3), read-out: S. aureus ATCC Newman MIC
How it was run: as §5

S. aureus SgtB [2] = biological target: T2, S. aureus SgtB (Staphylococcus aureus, UniProt Q99T05); test: Dose-dependent displacement of probe CMG121 from S. aureus SgtB by fluorescence polarization; assay type: binding; set-up: made in house
Description: as §1, §2, §3, §4

S. aureus RN4220 [3] = test: Growth (CFU) of S. aureus RN4220 in the presence of compound; assay type: cell-based; conditions: S. aureus RN4220, 1-6 h
MSSA NE1 = test: MIC test in TSB medium with MTT staining, MSSA NE1; assay type: cell-based, Staphylococcus aureus
Description: MIC Test (Methicillin Susceptible Staphylococcus aureus (MSSA Newman) and MSSA NE1)
Overnight cultures of MSSA Newman and MSSA NE1 were grown up in TSB medium at 37° C. The cultures obtained were normalized with TSB to O600=0.6 and diluted 100-fold. A sterile, clear 96 well plate was charged with 1.5 μL of a dilution series compound 1882L04 in DMSO (100×, in duplicate), and the diluted bacterial culture was added (150 μL). Moenomycin at a final concentration of 2.3 μM was used as positive control.

MSSA Newman = test: MIC test in TSB medium with MTT staining, MSSA Newman; assay type: cell-based, Staphylococcus aureus; conditions: TSB, 37° C., MTT staining after 22 h
Description: MIC Test (Methicillin Susceptible Staphylococcus aureus (MSSA Newman))
Overnight cultures of MSSA Newman were grown up in TSB medium at 37° C. The cultures obtained were normalized with TSB to OD600=0.6 and diluted 100-fold. 1.5 μL of a dilution series of Example Compounds in DMSO (100×, in duplicate), and the diluted bacterial culture (150 μL) was added to wells of a sterile, clear 96 well plate and incubated at 37° C.

S. aureus RN4220 [4] = conditions: S. aureus RN4220 grown with 65 ug/mL for 22 h, repeated
Description: A liquid culture of wild-type S. aureus RN4220 was grown up in the presence of 1882L04 (65 ug/mL) for 22 h. This culture was normalized to OD600=0.6, diluted 100×, and grown up in the presence of 1882L04 (65 ug/mL) and DMSO. The cultures obtained after 22 h were treated as mentioned before and grown up again.

S. aureus SgtB [5] = biological target: T2, S. aureus SgtB; conditions: read-out: IC50, in vitro inhibition of S. aureus SgtB; 50 nM SgtB, 14C-lipid II, 25 min at room temperature, two independent experiments
Description: In Vitro Inhibition of Polymerization of Lipid II by PGTs
(i) In Vitro Inhibition of S. aureus SgtB:
Then ^14C-labelled lipid II (1 μL, 40 μM, ^14C/^12C 1/3) was added and the polymerization reaction was allowed to proceed for 25 min at room temperature. The reaction was quenched with 10 μL of a solution of moenomycin (1 μM) in 10% triton-X reduced and the remaining lipid II was separated from peptidoglycan (PG) using paper strip chromatography (isobutyric acid/1M NH4OH 5/3). Using a scintillation counter the ratio of radioactivity in PG to total radioactivity was determined and plotted vs. inhibitor concentration. IC50 values were determined using the curve fitting program GraphPad Prism 5.0 (GraphPad Software, Inc.; La Jolla, Calif., USA).

S. aureus SgtB [6] = biological target: T2, S. aureus SgtB; test: Michaelis-Menten kinetics of lipid II polymerization by S. aureus SgtB in the presence of 1882L04; assay type: biochemical; set-up: made in house
Description: (ii) Determination of KM and vmax for Polymerization of Lipid II by S. aureus SgtB in the Presence of 1882L04
The polymerization reaction was initiated by addition of radioactively labeled lipid II (1 μL, 100 μM, ^14C/^12C=1/3; for a final concentration of 10 μM=KM). […] This ratio was multiplied with the concentration of lipid II used to obtain the amount of lipid II in PG in μM. This value was devided by 1200 s to obtain the reaction rate v in μM/s, which was plotted vs. concentration of lipid II.

S. aureus NEI = test: TEM imaging of S. aureus NE1 treated with compound; assay type: cell-based
Source text: FIGS. 7A and 7B show TEM imaging of S. aureus NEI treated with compound 1882L04.

E. faecalis PBP2a = test: In vitro inhibition of polymerization of 14C-lipid II by E. faecalis PBP2a; assay type: biochemical; conditions: 50 nM PBP2a, 25 min at room temperature
Description: (ii) In Vitro Inhibition of E. faecalis PBP2a
Solutions of the E. faecalis PBP2a (50 nM) in 50 mM HEPES (pH=7.5), 10 mM CaCl2, and 1000 U/min PenG (8 μL) were incubated with DMSO solutions containing the inhibitor of interest in different concentrations (1 μL) for 20 min. Then ^14C-labelled lipid II (1 μL, 40 μM, ^14C/^12C 1/3) was added and the polymerization reaction was allowed to proceed for 25 min at room temperature.

[7] = 24 h (Table 3), read-out: S. aureus ATCC 29213 MIC
[8] = 24 h (Table 2), read-out: S. aureus ATCC 29213 MIC at 24 h
[9] = 24 h (Table 2), read-out: S. aureus ATCC 43300 MIC at 24 h

Cc1ccc(-c2nc(SCCOc3ccccc3C)n3[nH]c(=O)cc3n2)cc1 [Compound 1882P19]
pIC50 ([1]; Figure 10F): < 3.70

Cc1ccc(C(C)C)c(OCCSc2nc(-c3ccccc3F)nc3cc(=O)[nH]n23)c1 [Compound 1882J21]
pIC50 ([1]; Figure 10F): < 3.70

CC(C)(C)c1ccc(-c2nc(NCCNC3Cc4ccccc4C3)n3[nH]c(=O)cc3n2)cc1 [Example 90, 2-(4-tert-Butylphenyl)-4-({2-[(2,3-dihydro-1H-inden-2-yl)amino]ethyl}amino)-6H,7H-pyrazolo[1,5-a][1,3,5]triazin-7-one]
MIC (H. influenzae ATCC 49247): 16 mg/L (≈ 36.2 µM) | MIC (S. aureus ATCC 29213; [7]): 16 mg/L (≈ 36.2 µM) | MIC (S. aureus ATCC 43300; 24 h (Table 3), read-out: S. aureus ATCC 43300 MIC): 16 mg/L (≈ 36.2 µM) | MIC (S. aureus Newman): 16 mg/L (≈ 36.2 µM)

Cc1cc(OCCCNc2nc(-c3cc[n+]([O-])cc3)nc3cc(=O)[nH]n23)ccc1Cl [Example 126, 4-(4-{[3-(4-chloro-3-methylphenoxy)propyl]amino}-7-oxo-6H,7H-pyrazolo[1,5-a][1,3,5]triazin-2-yl)pyridin-1-ium-1-olate]
MIC (H. influenzae ATCC 49247): 1 mg/L (≈ 2.34 µM)

CC(C)(C)c1ccc(-c2nc(NCCCOC3CCCCC3)n3[nH]c(=O)cc3n2)cc1 [Example 31, 2-(4-tert-butylphenyl)-4-{[3-(cyclohexyloxy)propyl]amino}-6H,7H-pyrazolo[1,5-a][1,3,5]triazin-7-one]
MIC (H. influenzae ATCC 49247): 32 mg/L (≈ 75.5 µM) | MIC (S. aureus ATCC 29213; [8]): 8 mg/L (≈ 18.9 µM) | MIC (S. aureus ATCC 43300; [9]): 16 mg/L (≈ 37.8 µM)

O=c1[nH]n2c(=S)[nH]c(C34CC5CC(CC(C5)C3)C4)nc2c1Cc1ccccc1 [Example 121, 2-(adamantan-1-yl)-8-benzyl-4-sulfanylidene-3H,4H,6H,7H-pyrazolo[1,5-a][1,3,5]triazin-7-one]
MIC (H. influenzae ATCC 49247): 8 mg/L (≈ 20.4 µM) | MIC (S. aureus ATCC 29213; [7]): 4 mg/L (≈ 10.2 µM) | MIC (S. aureus Newman): 4 mg/L (≈ 10.2 µM)

CN1CCC(Nc2nc(-c3ccc(C(C)(C)C)cc3)nc3cc(=O)[nH]n23)CC1 [Example 19, 2-(4-tert-butylphenyl)-4-[(1-methylpiperidin-4-yl)amino]-6H,7H-pyrazolo[1,5-a][1,3,5]triazin-7-one]
MIC (H. influenzae ATCC 49247): 64 mg/L (≈ 168 µM) | MIC (S. aureus ATCC 29213; [8]): 64 mg/L (≈ 168 µM) | MIC (S. aureus ATCC 43300; [9]): 64 mg/L (≈ 168 µM)

CC(C)(C)c1ccc(-c2nc(O)n3[nH]c(=O)cc3n2)cc1 [Entry 18]
pIC50 (S. aureus SgtB [2]): 4.47

COc1ccc(CNc2nc(-c3ccc(C(C)(C)C)cc3)nc3cc(=O)[nH]n23)cc1 [Entry 14]
pIC50 (S. aureus SgtB [2]): < 3.70

CNc1nc(-c2ccc(C(C)(C)C)cc2)nc2cc(=O)[nH]n12 [Entry 16]
pIC50 (S. aureus SgtB [2]): < 3.70

Cc1cccc(OCCCSc2nc(-c3ccc(C(C)(C)C)cc3)nc3cc(=O)[nH]n23)c1C [1882L04]
Type of antibacterial activity (number of CFUs) (S. aureus RN4220 [3]): bacteriostatic activity | Sensitization of MSSA NE1 to compound (MIC data) (MSSA NE1): sensitized | MIC MSSA NE1 (MSSA NE1; TSB, 37° C., MTT staining after 22 h): 8 mg/L (≈ 17.3 µM) | MIC MSSA Newman (MSSA Newman): 125 mg/L (≈ 270 µM) | Development of resistance (S. aureus RN4220 [4]): became resistant | pIC50 (S. aureus SgtB [2]; displacement of 75 nM CMG121 from S. aureus SgtB, 30 min at 4° C., read-out: IC50 from FP Assay): 5.00 | Hill slope (S. aureus SgtB [2]; displacement of CMG121 from S. aureus SgtB, two independent experiments): −0.92 | pIC50 (S. aureus SgtB [5]): 4.01 | Km (S. aureus SgtB [6]; c(1882L04)=50 μM): 18.2 µM | vmax for polymerization of lipid II by SgtB (S. aureus SgtB [6]; c(1882L04)=50 μM): 0.015 µM/s | Km (S. aureus SgtB [6]; c(1882L04)=100 μM): 20.9 µM | vmax for polymerization of lipid II by SgtB (S. aureus SgtB [6]; c(1882L04)=100 μM): 0.012 µM/s | Cell morphology by TEM (S. aureus NEI): growth defects | pIC50 (E. faecalis PBP2a): 3.47

Cc1ccc(OCCCSc2nc(-c3ccc(C(C)(C)C)cc3)nc3cc(=O)[nH]n23)cc1C [Compound 1882F04]
pIC50 ([1]; Figure 10F): 4.59

Cc1cccc(OCCCSc2nc(-c3ccc(C(C)(C)C)cc3)nc3cc(=O)[nH]n23)c1C [Compound 1882L04]
pIC50 ([1]; Figure 5): 5.15

CC(C)(C)c1ccc(-c2nc(N)n3[nH]c(=O)cc3n2)cc1 [Entry 17]
pIC50 (S. aureus SgtB [2]): < 3.70

Cc1ccc(Cc2c(=O)[nH]n3c(=S)[nH]c(-c4ccc(C(C)(C)C)cc4)nc23)cn1 [Example 112, 2-(4-tert-butylphenyl)-8-[(6-methylpyridin-3-yl)methyl]-4-sulfanylidene-3H,4H,6H,7H-pyrazolo[1,5-a][1,3,5]triazin-7-one]
MIC (H. influenzae ATCC 49247): 16 mg/L (≈ 39.5 µM) | MIC (S. aureus ATCC 29213; [7]): 8 mg/L (≈ 19.7 µM) | MIC (S. aureus Newman): 4 mg/L (≈ 9.86 µM)

Cc1ccc(CSc2nc(-c3ccc(C(C)(C)C)cc3)nc3cc(=O)[nH]n23)cc1 [Entry 9]
pIC50 (S. aureus SgtB [2]): 3.95
